Values after ≈ are worked out from the molar mass of the structure shown. Like-named read-outs stand apart in the source and are kept apart here.
Assays:
Str. pyogenes = test: MIC, antibiotic dilution technique (agar); format: cell-based, S. pyogenes; details: Streptococcus pyogenes; Table 1, Str. pyogenes
Text: (§1) Bacteria. The organisms, preponderantly of recent clinical origin, were obtained from numerous sources of broad geographical distribution. Obligate anaerobes were maintained in Egg Meat Medium (Difco); Mycobacterium was stored on Lowenstein Medium (Jensen Modification; Difco). The techniques of storing all other organisms have been described previously [Leitner et al., BL-S640, A Cephalosporin with a Broad Spectrum of Antibacterial Activity: Properties in vitro, Antimicrob. Agents Chemother., 7, 298-305 (1975)].
(§2) Antibiotic spectrum. The growth-inhibitory activity of the compounds was determined by the antibiotic dilution technique. Procedures were as follows:
(§3) Aerobic organisms (excluding Mycobacterium). Except for Haemophilus and Neisseria, the assay was performed in Mueller-Hinton Medium (Difco). For fastidious organisms, i.e., Streptococcus, Listeria, Pasteurella, Bordetella and Vibrio, the medium was supplemented with 4% defibrinated sheep blood. The antibiotic susceptibility of Haemophilus and Neisseria was determined in GC Medium Base (BBL) supplemented with 1% Hemoglobin (BBL) and 1% Isovitalex (BBL).
(§4) Overnight broth cultures of an exponentially growing culture (Neisseria) served as the source of inoculum. A volume of approximately 0.003 ml. of the undiluted or diluted culture was applied to the surface of the antibiotic-containing agar plates with the inoculator of Steers et al., An Inocula Replicating Apparatus for Routine Testing of Bacterial Susceptibility to Antibiotics, Antibiot. Chemother., 9, 307-311, (1959). Cultures of Neisseria, Streptococcus pneumoniae, S. viridans and S. pyogenes were used without dilution; those of all other organisms were diluted 100-fold. The inoculum contained about 10^3 viable cells for Neisseria, 10^5 for S. pneumoniae and S. pyogenes, 10^6 for S. viridans and 10^4 for all other species.

[1] = Mouse blood levels after oral administration (disc diffusion bioassay, Bacillus subtilis); details: in vivo, 100 mg/kg
S. viridans = test: MIC, antibiotic dilution technique (agar), Table 4; format: cell-based; details: Streptococcus viridans
Text: as §1, §2, §3, §4

E. cloacae = test: MIC, antibiotic dilution technique (agar), Table 4; format: cell-based; details: Enterobacter cloacae; Table 4, 2 strains, geometric mean where applicable
Text: as §1, §2, §3, §4

[2] = tested on: S. aureus (lacking penase); test: MIC, antibiotic dilution technique (agar), Table 4; format: cell-based; details: Staphylococcus aureus; Table 4, 6 strains, geometric mean where applicable
Text: as §1, §2, §3, §4

[3] = tested on: Streptococcus sp. (β-hemolytic); test: MIC, antibiotic dilution technique (agar), Table 4; format: cell-based; details: Table 4, 6 strains, geometric mean where applicable
Text: as §1, §2, §3, §4

E. Coli [4] = test: MIC, antibiotic dilution technique (agar), Table 4; format: cell-based; details: Escherichia coli
Text: as §1, §2, §3, §4

p. vulgaris = test: MIC, antibiotic dilution technique (agar), Table 4; format: cell-based; details: Proteus vulgaris; Table 4, 2 strains, geometric mean where applicable
Text: as §1, §2, §3, §4

K. pneumoniae [5] = test: MIC, antibiotic dilution technique (agar), Table 4; format: cell-based; details: Klebsiella pneumoniae
Text: as §1, §2, §3, §4

S. pneumoniae = test: MIC, antibiotic dilution technique (agar), Table 4; format: cell-based; details: Streptococcus pneumoniae; Table 4, 7 strains, geometric mean where applicable
Text: as §1, §2, §3, §4

S. pyogenes = test: MIC, antibiotic dilution technique (agar), Table 4; format: cell-based; details: Streptococcus pyogenes; Table 4, 6 strains, geometric mean where applicable
Text: as §1, §2, §3, §4

P. mirabilis = test: MIC, antibiotic dilution technique (agar), Table 4; format: cell-based; details: Proteus mirabilis
Text: as §1, §2, §3, §4

S. faecalis = test: MIC, antibiotic dilution technique (agar), Table 4; format: cell-based; details: Enterococcus faecalis; Table 4, 6 strains, geometric mean where applicable
Text: as §1, §2, §3, §4

S. marcescens = test: MIC, antibiotic dilution technique (agar), Table 4; format: cell-based; details: Serratia marcescens
Text: as §1, §2, §3, §4

P. rettgeri = test: MIC, antibiotic dilution technique (agar), Table 4; format: cell-based; details: Providencia rettgeri
Text: as §1, §2, §3, §4

Str. faecalis = test: MIC, antibiotic dilution technique (agar); format: cell-based; details: Enterococcus faecalis; Table 1, Str. faecalis
Text: as §1, §2, §3, §4

Pr. morganii = test: MIC, antibiotic dilution technique (agar); format: cell-based; details: Morganella morganii
Text: as §1, §2, §3, §4

S. aureus = test: MIC, antibiotic dilution technique (agar); format: cell-based; details: Staphylococcus aureus
Text: as §1, §2, §3, §4

Ser. marcescens = test: MIC, antibiotic dilution technique (agar); format: cell-based; details: Serratia marcescens; Table 1, Ser. marcescens
Text: as §1, §2, §3, §4

Ps. aeruginosa = test: MIC, antibiotic dilution technique (agar); format: cell-based; details: Pseudomonas aeruginosa, Table 1, Ps. aeruginosa
Text: as §1, §2, §3, §4

S. aureus Pen-Res. = test: MIC, antibiotic dilution technique (agar); format: cell-based; details: Staphylococcus aureus
Text: as §1, §2, §3, §4

E. Coli [6] = test: MIC, antibiotic dilution technique (agar); format: cell-based; details: Escherichia coli, Table 1, E. Coli
Text: as §1, §2, §3, §4

K. pneumoniae [7] = test: MIC, antibiotic dilution technique (agar); format: cell-based; details: Klebsiella pneumoniae, Table 1, K. pneumoniae, read-out: MIC
Text: as §1, §2, §3, §4

Pr. vulgaris = test: MIC, antibiotic dilution technique (agar); format: cell-based; details: Proteus vulgaris; Table 1, Pr. vulgaris
Text: as §1, §2, §3, §4

Pr. rettgeri = test: MIC, antibiotic dilution technique (agar); format: cell-based; details: Providencia rettgeri; Table 1, Pr. rettgeri
Text: as §1, §2, §3, §4

Ent. cloacae = test: MIC, antibiotic dilution technique (agar); format: cell-based; details: Enterobacter cloacae, Table 1, Ent. cloacae, read-out: MIC
Text: as §1, §2, §3, §4

Str. pneumoniae = test: MIC, antibiotic dilution technique (agar); format: cell-based; details: Streptococcus pneumoniae; Table 1, Str. pneumoniae
Text: as §1, §2, §3, §4

Pr. mirabilis = test: MIC, antibiotic dilution technique (agar); format: cell-based; details: Proteus mirabilis; Table 1, Pr. mirabilis
Text: as §1, §2, §3, §4

S. aureus Meth-Res. = test: MIC, antibiotic dilution technique (agar); format: cell-based; details: Staphylococcus aureus; Table 1, S. aureus Meth-Res.
Text: as §1, §2, §3, §4

CC1(C)S[C@@H]2[C@H](NC(=O)[C@H](N)c3ccccc3)C(=O)N2[C@H]1C(=O)O [Ampicillin, ampicillin]
MIC (Str. pyogenes): 0.008 µg/mL (≈ 0.0229 µM)
concentration at 0.25 h [1]: 3500 ng/mL
concentration at 0.5 h [1]: 6600 ng/mL
concentration at 1 h [1]: 6800 ng/mL
concentration at 1.5 h [1]: 4300 ng/mL
concentration at 2 h [1]: 2500 ng/mL
concentration at 3 h [1]: 1100 ng/mL
MIC (S. viridans; Table 4, S. viridans, 1 strain (second line)): 0.063 µg/mL (≈ 0.18 µM)
MIC (S. viridans; Table 4, S. viridans, 3 strains, geometric mean where applicable): 0.05 µg/mL (≈ 0.143 µM)
MIC (S. viridans; Table 4, s. viridans, 1 strain (third line)): 0.35 µg/mL (≈ 1 µM)
MIC (E. cloacae): 63 µg/mL (≈ 180 µM)
MIC [2]: 0.07 µg/mL (≈ 0.2 µM)
MIC [3]: 0.063 µg/mL (≈ 0.18 µM)
MIC (E. Coli [4]; 1 strain (first line)): 0.5 µg/mL (≈ 1.43 µM)
MIC (E. Coli [4]; 1 strain (fourth line)): > 125 µg/mL
MIC (E. Coli [4]; 1 strain (third line)): 63 µg/mL (≈ 180 µM)
MIC (E. Coli [4]; 3 strains (second line), geometric mean where applicable): 2.5 µg/mL (≈ 7.15 µM)
MIC (p. vulgaris): 0.35 µg/mL (≈ 1 µM)
MIC (K. pneumoniae [5]): > 125 µg/mL
MIC (K. pneumoniae [5]; Table 4, K. pneumoniae, 1 strain (first line), read-out: MIC): 32 µg/mL (≈ 91.6 µM)
MIC (S. pneumoniae): 0.02 µg/mL (≈ 0.0572 µM)
MIC (S. pyogenes): 0.016 µg/mL (≈ 0.0458 µM)
MIC (P. mirabilis): > 125 µg/mL
MIC (P. mirabilis; Table 4, P. mirabilis, 4 strains, geometric mean where applicable, read-out: MIC): 2 µg/mL (≈ 5.72 µM)
MIC (S. faecalis): 1 µg/mL (≈ 2.86 µM)
MIC (S. marcescens; 1 strain (first line), read-out: MIC): 63 µg/mL (≈ 180 µM)
MIC (S. marcescens; 1 strain (second line)): > 125 µg/mL
MIC (P. rettgeri; Table 4, P. retgeri, 2 strains (third line), geometric mean where applicable): 32 µg/mL (≈ 91.6 µM)
MIC (P. rettgeri; Table 4, P. rettgeri, 1 strain (first line)): 0.13 µg/mL (≈ 0.372 µM)
MIC (P. rettgeri; Table 4, P. rettgeri, 1 strain (second line)): 4 µg/mL (≈ 11.4 µM)
MIC (Str. faecalis): 0.13 µg/mL (≈ 0.372 µM)
MIC (Pr. morganii): 125 µg/mL (≈ 358 µM)
MIC (S. aureus; Table 1, S. aureus): 0.03 µg/mL (≈ 0.0859 µM)
MIC (S. aureus; Table 1, S. aureus + 50% serum): 0.06 µg/mL
MIC (Ser. marcescens): 16 µg/mL (≈ 45.8 µM)
MIC (Ps. aeruginosa; first line, read-out: MIC): 63 µg/mL (≈ 180 µM)
MIC (Ps. aeruginosa; second line): > 125 µg/mL
MIC (S. aureus Pen-Res.): 125 µg/mL (≈ 358 µM)
MIC (E. Coli [6]; first line): 1 µg/mL (≈ 2.86 µM)
MIC (E. Coli [6]; second line): 63 µg/mL (≈ 180 µM)
MIC (K. pneumoniae [7]; first line): 63 µg/mL (≈ 180 µM)
MIC (K. pneumoniae [7]; second line): 32 µg/mL (≈ 91.6 µM)
MIC (Pr. vulgaris): 0.13 µg/mL (≈ 0.372 µM)
MIC (Pr. rettgeri): 8 µg/mL (≈ 22.9 µM)
MIC (Ent. cloacae; first line): 32 µg/mL (≈ 91.6 µM)
MIC (Ent. cloacae; second line): 32 µg/mL (≈ 91.6 µM)
MIC (Str. pneumoniae): 0.004 µg/mL (≈ 0.0114 µM)
MIC (Pr. mirabilis): 0.06 µg/mL (≈ 0.172 µM)
MIC (S. aureus Meth-Res.): 16 µg/mL (≈ 45.8 µM)

From patent publication US4217274A, “Methoxyethoxymethyl esters of penicillins” (Bristol-Myers Company, priority 1978, dated 1980)
